pIC50: −log10 of the molar value.
Legend:
Y641F EZH2 = Y641F EZH2 (Homo sapiens, UniProt Q15910, Y641F); conditions: SAM competitive; cited from earlier work
wild type EZH2 = wild type EZH2 (Homo sapiens, UniProt Q15910); conditions: SAM competitive; cited from earlier work
[1] = system: cells carrying EZH2 gain of function mutation, not in cluster A (low levels of H3K27me3); experiment: Cell proliferation, EZH2 gain of function cells not in cluster A; assay type: cell-based; conditions: FIG. 6, cells predicted sensitive by genotyping, insensitive by MCS
Method: (§1) B cell lymphoma cells were cultured using standard cell culture conditions. For example, lymphoma cells were cultured in RPMI-1640 (Invitrogen, cat #11875, Grand Island, N.Y.) supplemented with 15% FBS (Invitrogen, cat #10099-141, Grand Island, N.Y.) in humidified incubator at 37° C., 5% CO2. To assess the effect of EZH2 inhibitor on cell proliferation, exponentially growing cells were seeded at a density of 1×10^5 cells/ml in 12-well plate (Corning, cat #CLS3513 Tewksbury, Mass.). Compounds were added after cell seeding at the indicated final concentration, and viable cell number was determined every 3-4 days continuously during the course of experiment using Vi-CELL (Beckman Coulter, Brea, Calif.). On days of cell counting, fresh growth media and compound were replenished and cells split back to a density of 1×10^5 cells/ml. Total cell number and population doubling was then calculated.

[2] = system: cancer cell lines with EZH2 gain-of-function mutations (MCS Cluster A); experiment: Cell proliferation, cell lines sensitive by EZH2 genotype and MCS (cluster A); assay type: cell-based; conditions: FIG. 5; cells predicted to be sensitive by EZH2 genotyping and by MCS
Method: as §1

Sequence of Y641F EZH2 (Q15910 whole entry Y641F): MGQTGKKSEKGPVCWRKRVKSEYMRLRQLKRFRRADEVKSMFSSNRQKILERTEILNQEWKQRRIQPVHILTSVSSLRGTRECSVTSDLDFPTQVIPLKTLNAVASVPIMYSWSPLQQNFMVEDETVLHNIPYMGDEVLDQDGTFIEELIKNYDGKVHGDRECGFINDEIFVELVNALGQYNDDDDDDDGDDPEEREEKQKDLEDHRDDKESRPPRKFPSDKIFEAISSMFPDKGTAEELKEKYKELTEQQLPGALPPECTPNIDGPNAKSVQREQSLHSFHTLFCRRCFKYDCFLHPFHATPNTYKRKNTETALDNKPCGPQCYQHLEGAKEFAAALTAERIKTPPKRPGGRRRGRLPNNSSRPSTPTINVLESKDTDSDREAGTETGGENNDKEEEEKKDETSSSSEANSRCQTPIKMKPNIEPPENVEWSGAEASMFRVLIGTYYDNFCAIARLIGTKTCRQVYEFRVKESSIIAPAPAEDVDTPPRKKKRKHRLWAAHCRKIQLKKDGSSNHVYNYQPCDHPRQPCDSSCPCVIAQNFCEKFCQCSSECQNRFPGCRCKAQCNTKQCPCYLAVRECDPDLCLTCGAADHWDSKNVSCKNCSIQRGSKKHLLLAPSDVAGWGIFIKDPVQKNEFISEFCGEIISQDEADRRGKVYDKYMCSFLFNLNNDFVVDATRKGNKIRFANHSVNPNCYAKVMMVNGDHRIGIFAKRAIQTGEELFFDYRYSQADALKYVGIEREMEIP
Sequence of Y641F EZH2 (O75530 whole entry partner): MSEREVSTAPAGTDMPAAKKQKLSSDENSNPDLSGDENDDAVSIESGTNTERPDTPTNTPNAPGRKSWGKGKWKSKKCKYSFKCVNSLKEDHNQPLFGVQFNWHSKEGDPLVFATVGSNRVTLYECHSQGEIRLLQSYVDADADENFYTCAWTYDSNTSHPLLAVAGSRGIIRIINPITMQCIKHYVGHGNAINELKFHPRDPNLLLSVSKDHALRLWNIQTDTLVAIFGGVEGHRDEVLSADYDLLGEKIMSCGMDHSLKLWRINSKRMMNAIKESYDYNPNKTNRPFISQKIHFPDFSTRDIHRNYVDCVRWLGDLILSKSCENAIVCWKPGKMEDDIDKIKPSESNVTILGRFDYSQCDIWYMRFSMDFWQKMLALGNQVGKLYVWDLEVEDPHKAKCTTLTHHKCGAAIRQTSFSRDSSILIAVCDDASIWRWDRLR
Sequence of Y641F EZH2 (Q15022 whole entry partner): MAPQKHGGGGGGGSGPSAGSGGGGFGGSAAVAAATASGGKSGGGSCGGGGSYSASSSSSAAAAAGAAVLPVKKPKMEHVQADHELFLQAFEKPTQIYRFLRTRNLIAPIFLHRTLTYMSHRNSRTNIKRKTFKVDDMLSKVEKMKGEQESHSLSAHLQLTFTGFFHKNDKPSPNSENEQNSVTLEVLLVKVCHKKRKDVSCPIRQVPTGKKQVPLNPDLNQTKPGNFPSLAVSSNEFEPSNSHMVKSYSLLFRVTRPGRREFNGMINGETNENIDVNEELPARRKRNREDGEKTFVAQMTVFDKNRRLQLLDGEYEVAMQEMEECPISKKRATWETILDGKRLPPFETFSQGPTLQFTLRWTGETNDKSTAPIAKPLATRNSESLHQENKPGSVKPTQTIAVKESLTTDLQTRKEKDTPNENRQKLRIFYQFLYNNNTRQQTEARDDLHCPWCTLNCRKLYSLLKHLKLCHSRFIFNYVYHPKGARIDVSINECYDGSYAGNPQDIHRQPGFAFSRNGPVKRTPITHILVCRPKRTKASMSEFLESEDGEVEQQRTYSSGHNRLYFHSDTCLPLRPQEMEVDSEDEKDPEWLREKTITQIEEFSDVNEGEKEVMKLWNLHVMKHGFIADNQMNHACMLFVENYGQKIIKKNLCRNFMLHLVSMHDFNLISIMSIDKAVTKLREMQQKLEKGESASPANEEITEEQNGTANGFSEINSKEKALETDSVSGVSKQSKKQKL
Sequence of wild type EZH2 (Q15910 whole entry): as the sequence (Q15910 whole entry Y641F) above, with F641Y counted along it
Sequence of wild type EZH2 (O75530 whole entry partner): as the sequence (O75530 whole entry partner) above
Sequence of wild type EZH2 (Q15022 whole entry partner): as the sequence (Q15022 whole entry partner) above

In the case of CCC(CC)n1ccc2c(C(=O)NCc3c(C)cc(C)[nH]c3=O)cc(C#N)cc21 [EI1, 6-cyano-N-((4,6-dimethyl-2-oxo-1,2-dihydropyridin-3-yl)methyl)-1-(pentan-3-yl)-1H-indole-4-carboxamide], the pIC50 (Y641F EZH2) is given as 7.88, the pIC50 (wild type EZH2) is given as 8.03 and the “sensitivity of cells to EZH2 inhibitor (cell proliferation)” value [1] is given as “insensitive”. The “sensitivity of cells to EZH2 inhibitor (cell proliferation)” value [2] was “sensitive”.

— patent US20160091485A1, “MARKERS FOR EZH2 INHIBITORS” (THE BROAD INSTITUTE, INC., priority 2013, published 2016)
